From ChEMBL document CHEMBL1139181, “Design and synthesis of novel heterobiaryl amides as metabotropic glutamate receptor subtype 5 antagonists” (Bioorg Med Chem Lett, 2007) come the findings set out here.

SMILES strings stand for the structures.

What is called Ki is the equilibrium dissociation constant of an inhibitor or competing ligand from its target. Low values mean tighter binding, high ones weaker binding. For orientation: IC50 means the midpoint of a concentration-inhibition curve.

Test [1] addresses Metabotropic glutamate receptor 5 (Rattus norvegicus) (UniProt P31424). In words: Displacement of [3H]MPEP from mGluR5 in rat brain membrane at 10 uM. It counts as cell membranes.
For test [2], the target named is Metabotropic glutamate receptor 5 (Rattus norvegicus, UniProt P31424). Description: Displacement of [3H]MPEP from mGluR5 in rat brain membrane. It counts as cell membranes. For orientation: Loss of bound radioactivity is the signal in a displacement assay; it reports binding, not function.
Chain of Metabotropic glutamate receptor 5 (Rattus norvegicus, UniProt P31424) (P31424 whole entry): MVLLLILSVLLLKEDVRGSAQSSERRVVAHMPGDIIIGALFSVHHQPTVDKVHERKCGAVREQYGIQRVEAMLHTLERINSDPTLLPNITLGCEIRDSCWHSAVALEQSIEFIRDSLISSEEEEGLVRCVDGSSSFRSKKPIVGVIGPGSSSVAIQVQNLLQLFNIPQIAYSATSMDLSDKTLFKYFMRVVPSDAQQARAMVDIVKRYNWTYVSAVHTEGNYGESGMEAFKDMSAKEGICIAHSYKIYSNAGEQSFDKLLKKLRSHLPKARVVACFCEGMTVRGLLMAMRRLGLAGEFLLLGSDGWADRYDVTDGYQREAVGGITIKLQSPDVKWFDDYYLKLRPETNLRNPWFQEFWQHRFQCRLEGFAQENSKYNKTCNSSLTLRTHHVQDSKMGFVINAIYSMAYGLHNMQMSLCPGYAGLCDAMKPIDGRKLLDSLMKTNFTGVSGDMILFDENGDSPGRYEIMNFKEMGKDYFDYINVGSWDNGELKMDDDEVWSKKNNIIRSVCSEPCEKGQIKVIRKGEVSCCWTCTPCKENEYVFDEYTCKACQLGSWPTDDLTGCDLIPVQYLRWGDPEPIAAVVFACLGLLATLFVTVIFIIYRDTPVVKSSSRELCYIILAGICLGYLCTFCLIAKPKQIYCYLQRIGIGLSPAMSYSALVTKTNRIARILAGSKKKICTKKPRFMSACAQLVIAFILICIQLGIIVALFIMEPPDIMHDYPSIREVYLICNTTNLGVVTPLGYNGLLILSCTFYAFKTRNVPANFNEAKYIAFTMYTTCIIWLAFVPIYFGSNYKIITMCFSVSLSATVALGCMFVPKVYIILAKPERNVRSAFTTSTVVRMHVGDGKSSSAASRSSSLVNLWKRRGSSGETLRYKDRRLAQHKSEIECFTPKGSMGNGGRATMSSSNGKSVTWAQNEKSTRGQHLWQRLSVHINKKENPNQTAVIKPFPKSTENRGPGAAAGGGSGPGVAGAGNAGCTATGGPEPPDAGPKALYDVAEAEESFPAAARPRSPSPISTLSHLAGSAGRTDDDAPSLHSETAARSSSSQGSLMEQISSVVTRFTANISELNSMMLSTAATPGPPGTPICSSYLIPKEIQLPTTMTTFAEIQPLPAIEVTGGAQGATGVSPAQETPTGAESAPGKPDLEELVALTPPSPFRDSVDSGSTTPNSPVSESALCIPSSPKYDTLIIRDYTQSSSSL
In test [3] the target is Metabotropic glutamate receptor 5 (Homo sapiens, UniProt P41594). In words: Antagonist activity at mGluR5 expressed in CHO cells assessed as phosphoinositide hydrolysis. It counts as functional, cell-based.
Chain of Metabotropic glutamate receptor 5 (Homo sapiens, UniProt P41594) (P41594 whole entry): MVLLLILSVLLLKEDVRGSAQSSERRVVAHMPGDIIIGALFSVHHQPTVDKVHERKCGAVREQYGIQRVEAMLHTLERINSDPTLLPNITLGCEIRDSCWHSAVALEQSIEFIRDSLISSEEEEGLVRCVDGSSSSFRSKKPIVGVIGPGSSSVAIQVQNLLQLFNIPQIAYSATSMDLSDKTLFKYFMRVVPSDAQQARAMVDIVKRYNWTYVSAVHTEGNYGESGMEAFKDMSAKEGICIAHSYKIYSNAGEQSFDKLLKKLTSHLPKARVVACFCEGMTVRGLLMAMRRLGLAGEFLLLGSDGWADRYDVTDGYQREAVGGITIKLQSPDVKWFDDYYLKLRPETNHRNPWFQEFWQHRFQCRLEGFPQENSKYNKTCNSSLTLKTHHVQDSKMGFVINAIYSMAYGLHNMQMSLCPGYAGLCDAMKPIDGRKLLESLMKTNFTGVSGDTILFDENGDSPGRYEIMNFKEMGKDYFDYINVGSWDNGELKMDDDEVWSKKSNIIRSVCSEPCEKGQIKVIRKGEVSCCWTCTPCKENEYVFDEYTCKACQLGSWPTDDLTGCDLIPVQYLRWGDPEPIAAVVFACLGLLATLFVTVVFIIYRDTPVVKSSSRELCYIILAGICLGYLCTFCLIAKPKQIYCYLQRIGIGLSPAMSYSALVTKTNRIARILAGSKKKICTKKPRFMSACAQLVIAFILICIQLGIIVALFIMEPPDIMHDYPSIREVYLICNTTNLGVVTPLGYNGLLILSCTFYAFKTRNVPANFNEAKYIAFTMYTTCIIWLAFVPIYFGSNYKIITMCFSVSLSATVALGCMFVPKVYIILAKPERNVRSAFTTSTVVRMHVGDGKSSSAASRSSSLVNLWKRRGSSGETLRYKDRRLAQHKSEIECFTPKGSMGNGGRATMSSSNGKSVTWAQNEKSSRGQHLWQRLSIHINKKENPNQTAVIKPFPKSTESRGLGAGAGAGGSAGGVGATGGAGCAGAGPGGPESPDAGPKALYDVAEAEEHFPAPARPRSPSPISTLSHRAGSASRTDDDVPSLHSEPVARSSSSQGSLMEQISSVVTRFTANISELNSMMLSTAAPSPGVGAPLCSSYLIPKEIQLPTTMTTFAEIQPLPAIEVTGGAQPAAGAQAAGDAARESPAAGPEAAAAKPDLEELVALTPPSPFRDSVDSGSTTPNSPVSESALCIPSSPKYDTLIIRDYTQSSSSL

Chain of Metabotropic glutamate receptor 5 (Rattus norvegicus) (P31424 21-1203 limits assumed): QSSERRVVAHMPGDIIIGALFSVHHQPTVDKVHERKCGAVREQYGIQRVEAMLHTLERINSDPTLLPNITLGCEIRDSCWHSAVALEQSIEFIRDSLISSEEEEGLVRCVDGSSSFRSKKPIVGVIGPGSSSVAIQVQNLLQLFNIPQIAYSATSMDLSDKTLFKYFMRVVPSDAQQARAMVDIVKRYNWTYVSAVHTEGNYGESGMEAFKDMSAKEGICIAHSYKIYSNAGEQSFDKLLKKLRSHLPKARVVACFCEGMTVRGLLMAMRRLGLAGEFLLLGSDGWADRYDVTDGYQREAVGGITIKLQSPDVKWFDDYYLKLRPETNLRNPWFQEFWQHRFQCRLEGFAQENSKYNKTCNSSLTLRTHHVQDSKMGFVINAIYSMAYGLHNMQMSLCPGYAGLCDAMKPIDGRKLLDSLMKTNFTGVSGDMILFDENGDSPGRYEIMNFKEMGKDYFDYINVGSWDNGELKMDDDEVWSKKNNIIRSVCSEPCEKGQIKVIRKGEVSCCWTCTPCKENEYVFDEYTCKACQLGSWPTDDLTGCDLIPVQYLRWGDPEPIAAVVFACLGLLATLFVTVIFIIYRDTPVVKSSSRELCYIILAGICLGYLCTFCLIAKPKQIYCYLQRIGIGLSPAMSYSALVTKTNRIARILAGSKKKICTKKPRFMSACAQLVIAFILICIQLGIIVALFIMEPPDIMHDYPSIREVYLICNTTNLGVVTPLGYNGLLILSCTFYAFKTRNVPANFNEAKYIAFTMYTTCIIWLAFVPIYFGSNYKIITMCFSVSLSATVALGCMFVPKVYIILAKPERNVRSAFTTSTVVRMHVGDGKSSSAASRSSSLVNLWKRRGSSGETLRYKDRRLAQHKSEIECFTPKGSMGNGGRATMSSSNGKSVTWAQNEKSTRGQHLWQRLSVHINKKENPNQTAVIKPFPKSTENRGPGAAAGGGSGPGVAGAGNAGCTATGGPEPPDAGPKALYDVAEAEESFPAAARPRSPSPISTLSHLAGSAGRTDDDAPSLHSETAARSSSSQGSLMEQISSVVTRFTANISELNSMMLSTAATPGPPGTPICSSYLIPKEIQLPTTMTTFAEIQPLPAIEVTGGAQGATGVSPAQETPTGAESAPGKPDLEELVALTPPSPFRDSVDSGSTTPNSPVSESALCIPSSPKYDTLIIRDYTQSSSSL

Molecule `Cc1cccc(NC(=O)c2cc3ccccc3[nH]2)n1` had an Activity in test [1] of under 1%.
As to `COc1ccccc1-c1ccc(C(=O)Nc2cccc(C)n2)nc1`, the Ki in test [2] came to 560 nM.
In the case of `COc1ccccc1-c1ccnc(C(=O)Nc2cccc(C)n2)c1`, in test [1], the Activity amounted to 91%.
As to `Cc1cccc(NC(=O)c2cc3ccccc3s2)n1`, in test [1], the Activity is 11%.
In test [2], `Cc1cccc(NC(=O)c2nccn2C)n1` gave a Ki of 3070 nM.
In turn, `Cc1cccc(NC(=O)c2ccc(-c3cccc(C#N)c3)cn2)n1` yielded an Activity in test [1] of 7.4%.
In test [1], `Cc1cccc(NC(=O)c2csc(-c3ccccc3)n2)n1` came in with an Activity of under 1%.
On the same count and under the same terms, under `Cc1cccc(NC(=O)c2cc(Cl)ccn2)n1` stands 28%.
Turning to `Cc1cccc(NC(=O)c2ccc(-c3ccccc3)cn2)n1`, the affinity in test [2] corresponds to a Ki of 2800 nM.
On to `Cc1cccc(NC(=O)c2cc(-c3ccc4ccccc4c3)ccn2)n1`, for which the Activity in test [1] came to 32%.
`Cc1cccc(NC(=O)c2cc(-c3ncccn3)ccn2)n1` returned a Ki in test [2] of 2480 nM.
Molecule `Cc1cccc(NC(=O)c2cc(-c3cccc(C#N)c3)ccn2)n1` displayed a Ki in test [2] of 320 nM. Moreover, in test [3], the IC50 turned out to be 7300 nM.
For `Cc1cccc(NC(=O)c2cccn2C)n1`, in test [2], the Ki was over 10000 nM.
The same measure, in the same setting: under `Cc1cccc(NC(=O)c2cc(-c3cccc4ccccc34)ccn2)n1` stands 250 nM.
In the case of `Cc1cccc(NC(=O)c2cc(-c3cccs3)ccn2)n1`, in test [1], the Activity is under 1%.
On the same count and under the same terms, in the case of `Cc1cccc(NC(=O)c2cc3ccccc3n2C)n1` it was 8%.
In test [2], `Cc1cccc(NC(=O)c2nccc3ccccc23)n1` displayed a Ki of 440 nM.
For the molecule `Cc1cccc(NC(=O)c2ccc(-c3ccccn3)cn2)n1`, the affinity in test [2], expressed as Ki, was 100 nM. Besides, the IC50 in test [3] was 12400 nM.
Take `Cc1cccc(NC(=O)c2cc(-c3cc(F)cc(F)c3)ccn2)n1`: the Ki in test [2] stood at 43 nM. Also, the IC50 in test [3] stood at 160 nM.
In test [1], `COc1cccc(-c2ccnc(C(=O)Nc3cccc(C)n3)c2)c1` showed an Activity of 13%.
Molecule `Cc1cccc(NC(=O)c2cc3ccccc3o2)n1` showed an Activity in test [1] of 40%.
The same measure, in the same setting: under `Cc1cccc(NC(=O)c2ccc(-c3cccs3)cn2)n1` stands 40%.
In test [2], `Cc1cccc(NC(=O)c2cc(-c3cccc(F)c3)ccn2)n1` registered a Ki of 500 nM.
